{"source": "paper PMC8359613", "about": "“An essential vesicular-trafficking phospholipase mediates neutral lipid synthesis and contributes to hemozoin formation in Plasmodium falciparum” (BMC Biology, 2021)", "target": "T1, PfLPL1 (Plasmodium falciparum, UniProt Q8IK69)", "T1 construct": "gene PF3D7_1476700; full length 1-353, expressed from pETM-41 in E. coli BL21(DE3); Ni-NTA then amylose resin (implies His-MBP fusion)", "T1 sequence (Q8IK69 1-353)": "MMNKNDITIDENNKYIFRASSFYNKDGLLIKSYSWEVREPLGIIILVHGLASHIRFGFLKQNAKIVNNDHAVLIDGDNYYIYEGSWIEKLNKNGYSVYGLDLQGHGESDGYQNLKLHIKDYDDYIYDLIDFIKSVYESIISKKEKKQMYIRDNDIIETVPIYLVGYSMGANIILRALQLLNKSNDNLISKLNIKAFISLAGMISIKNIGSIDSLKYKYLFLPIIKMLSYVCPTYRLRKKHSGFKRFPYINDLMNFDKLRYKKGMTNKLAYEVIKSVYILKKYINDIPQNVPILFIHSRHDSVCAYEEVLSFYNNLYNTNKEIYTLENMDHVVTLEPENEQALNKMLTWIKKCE", "assay": "coupled Amplex Red fluorescence assay (GPC phosphodiesterase, choline oxidase, HRP)", "assay_type": "biochemical", "details": "substrate 0-70 µM; Tris-HCl, CaCl2, pH 8.0; room temperature; acyl chain of LPC not stated; reaction mix lists 0.5 mM lecithin"}
{"substance": "LPC", "values": [{"measurement": "Km", "result": "61.2 ± 5.9", "unit": "µM"}]}
